We go through 7 compounds from patent US6956036B1, “6-hydroxy-indazole derivatives for treating glaucoma” (Alcon, Inc., priority 2000, dated 2005).

By Emax is commonly meant the greatest response seen or fitted, relative to the assay's reference. The pEC50 is the EC50 on a negative log10 scale, so that one unit is a factor of ten. Lower therefore signals a high EC50. Usually melting point stands for the temperature, or range, at which the solid turns liquid.

In one series the target is T1, 5-HT2 receptor (Rattus norvegicus, UniProt P14842).
T1 construct: A7r5 rat vascular smooth muscle cells; endogenous in cells; host or cells: A7r5 rat vascular smooth muscle cells
The series is described as follows: 5-HT2 Functional Assay: Phosphoinositide (PI) Turnover Assay. The settings on record: for pEC50: [3H]inositol phosphates production in A7r5 rat vascular smooth muscle cells. The series is classed as cell-based. The procedure: 5-HT2 Functional Assay: Phosphoinositide (PI) Turnover Assay
The relative agonist activity of serotonergic compounds at the 5-HT2 receptor can be determined in vitro using the ability of the compounds to stimulate the production of [^3H]inositol phosphates in [^3H]myo-inositol-labeled A7r5 rat vascular smooth muscle cells by their ability to activate the enzyme phospholipase C. These cells are grown in culture plates, maintained in a humidified atmosphere of 5% CO2 and 95% air and fed semi-weekly with Dulbecco's modified Eagle medium (DMEM) containing 4.5 g/l glucose and supplemented with 2 mM glutamine, 10 μg/ml gentamicin, and 10% fetal bovine serum. For the purpose of conducting the phosphoinositide (PI) turnover experiments, the A7r5 cells are cultured in 24-well plates as previously [J. Pharmacol. Expt. Ther., 286, 411 (1998)]. Confluent cells are exposed for 24–30 hrs to 1.5 μCi [^3H]-myo-inositol (18.3 Ci/mmol) in 0.5 ml of serum-free medium. Cells are then rinsed once with DMEM/F-12 containing 10 mM LiCl prior to incubation with the test agent (or solvent as the control) in 1.0 ml of the same medium for 1 hr at 37° C., after which the medium is aspirated and 1 ml of cold 0.1 M formic acid added to stop the reaction. The chromatographic separation of [3H]-inositol phosphates ([^3H]-IPs) on an AG-1-X8 column is performed as previously described [J. Pharmacol. Expt. Ther. 286, 411 (1998)] with sequential washes with H2O and 50 mM ammonium formate, followed by elution of the total [^3H]-IPs fraction with 1.2 M ammonium formate containing 0.1 M formic acid. The eluate (4 ml) is collected, mixed with 15 ml scintillation fluid, and the total [^3H]-IPs determined by scintillation counting on a beta-counter. Concentration-response data are analyzed by the sigmoidal fit function of the Origin Scientific Graphics software (Microcal Software, Northampton, Mass.) to determine agonist potency (EC50 value) and efficacy (Emax). Serotonin (5-HT) is used as a positive control (standard) agonist compound and the efficacy of test compounds is compared to that of 5-HT (set at 100%). The concentration of the compound needed to stimulate the production of [^3H]-IPs by 50% of the maximum response is termed the EC50 value.

The mark [1] stands for this setting: A7r5 cells, efficacy compared to that of 5-HT (set at 100%).

pEC50: −log10 of the molar value.

T1 sequence (P14842 whole entry): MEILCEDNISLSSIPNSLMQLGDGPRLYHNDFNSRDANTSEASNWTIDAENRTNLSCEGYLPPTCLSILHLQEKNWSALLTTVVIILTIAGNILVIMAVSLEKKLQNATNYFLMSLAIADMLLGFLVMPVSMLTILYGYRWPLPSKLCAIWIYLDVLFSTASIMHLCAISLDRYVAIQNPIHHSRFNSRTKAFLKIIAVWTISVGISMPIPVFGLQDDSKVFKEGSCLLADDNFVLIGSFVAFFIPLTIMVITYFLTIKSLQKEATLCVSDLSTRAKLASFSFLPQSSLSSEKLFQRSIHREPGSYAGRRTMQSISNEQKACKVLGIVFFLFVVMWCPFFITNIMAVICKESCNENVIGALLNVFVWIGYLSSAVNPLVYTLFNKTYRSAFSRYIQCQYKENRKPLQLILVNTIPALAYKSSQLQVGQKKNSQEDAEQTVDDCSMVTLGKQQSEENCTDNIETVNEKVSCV

`COc1ccc2c(C)nn(CC(C)N)c2c1.O=C(O)/C=C/C(=O)O` (centres unmarked) [Example 1, 2-(6-Methoxy-3-methyl-indazol-1-yl)-1-methylethylamine Fumarate] yielded a melting point of 150 to 152 °C. On 5-HT2 receptor (setting [1]), this compound yielded an Emax of 71%. In addition, at 5-HT2 receptor, the pEC50 is 6.24.
`CC(N)Cn1ncc2ccc(OC(=O)C(C)(C)C)cc21.O=C(O)/C=C/C(=O)O` (centres unmarked) gave a melting point of 180 to 182 °C.
As to `CC(N)Cc1c[nH]c2ccc(O)cc12` (stereo not drawn) [α-Methylserotonin, reference compound], the “Efficacy (Emax, %)” value at 5-HT2 receptor (setting [1]) is given as 104%.
For the compound `CC(N)Cn1nc(Cl)c2ccc(O)cc21` (centres unmarked) [Example 6, 1-(2-Aminopropyl)-3-chloro-1H-indazol-6-ol], on 5-HT2 receptor (setting [1]), the Emax amounted to 84%. The compound further showed a negative logarithm of the EC50 (pEC50) at 5-HT2 receptor of 5.98.
Taken in the same sequence, the figures for `COc1ccc2c(Cl)nn(CC(C)N)c2c1` (centres unmarked) [Example 5, 2-(3-Chloro-6-methoxy-indazol-1-yl)-1-methyl-ethylamine] were 64% and 6.27.
As to `COc1ccc2cnn(CC(C)N)c2c1` (centres unmarked) [Example 4, 2-(6-Methoxy-indazol-1-yl)-1-methyl-ethylamine], the maximal effect (Emax) at 5-HT2 receptor (setting [1]) turned out to be 73%. Further, the pEC50 at 5-HT2 receptor was 6.61.
Consider `Cc1nn(CC(C)N)c2cc(O)ccc12.O=C(O)/C=C/C(=O)O` (centres unmarked) [Example 2, 1-(2-Aminopropyl)-3-methyl-1H-indazol-6-ol Fumarate], for which the melting point lay in the range of 166 to 168 °C. This compound came in with an Emax at 5-HT2 receptor (setting [1]) of 87%. On 5-HT2 receptor, this compound showed a pEC50 of 6.32.
